Values of other authors, collected in patent publication US6964946B1, “Oral pharmaceutical compositions containing taxanes and methods of treatment employing the same” (Baker Norton Pharmaceuticals, Inc., priority 1995, dated 2005).
“Also recorded” adds a separate entry of the source.

CC(=O)O[C@H]1C(=O)[C@@]2(C)[C@H]([C@H](OC(=O)c3ccccc3)[C@]3(O)C[C@H](OC(=O)[C@H](O)[C@@H](NC(=O)c4ccccc4)c4ccccc4)C(C)=C1C3(C)C)[C@]1(OC(C)=O)CO[C@@H]1C[C@@H]2O [Paclitaxel, paclitaxel]
level at which inhibition of protein isoprenylation occurs (protein isoprenylation): about 0.03 μM; also recorded: about 25 ng/ml
level at which inhibition of tubulin disassembly occurs (tubulin): about 0.1 μM; also recorded: about 85 ng/ml
